# Measurements published in the supplement of paper PMC4862054.
# System: BT-549
# Experiment: normalised response (% of control), CellTiter-Glo; higher = more viable cells (100 = DMSO, 0 = benzethonium chloride kill control)
# Settings: incubation time: 72 h
# Experimental: (§1)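 DSRT, 72 h incubation, CellTox Green / CellTiter-Glo readout. Signal is normalised to DMSO and benzethonium chloride controls. Value is the normalised response at the highest dose.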
row,SMILES,normalised response [%]
1,CC(C)(C)c1nc(-c2cccc(NS(=O)(=O)c3c(F)cccc3F)c2F)c(-c2ccnc(N)n2)s1 [Dabrafenib] (2500 nM),92.7
2,Cc1nc(C(=O)NCC(=O)O)c(O)c2ccc(Oc3ccccc3)cc12 [FG-4592] (10000 nM),92
3,O=C(O)CNC(=O)c1c(O)c2ccccc2n(Cc2ccccc2)c1=O [IOX-2] (50000 nM),86.4
4,CN(C)C(=N)NC(=N)N [Metformin] (100000 nM),99.3
5,CN(Cc1cnc2nc(N)nc(N)c2n1)c1ccc(C(=O)N[C@@H](CCC(=O)O)C(=O)O)cc1 [Methotrexate] (50000 nM),92.2
6,C=CCN(/C=C1/C(=O)O[C@H](COC)[C@@]2(C)C1=C(O)C(=O)C1=C2[C@H](OC(C)=O)C[C@]2(C)C(=O)CC[C@@H]12)CC=C [Sonolisib] (10000 nM),82.2

# System: CAL-120
# Experiment: as above
# Settings: incubation time: 72 h
# Experimental: as §1
row,SMILES,normalised response [%]
1,CCn1c(C(=O)N(C2CC2)C2CC2)cc2c3c(ncn3C)c(Nc3cc(C)n(C)n3)nc21 (10000 nM),102
2,CN[C@@H](C)C(=O)N[C@H]1CN(C(=O)CC(C)C)CC[C@H]2CC[C@@H](C(=O)NC(c3ccccc3)c3ccccc3)N2C1=O [AT-406] (10000 nM),61.1
3,CCN(CC)CCCC(C)Nc1ccnc2cc(Cl)ccc12 (centres undefined) [Chloroquine] (100000 nM),7.89
4,CC(C)(C)c1nc(-c2cccc(NS(=O)(=O)c3c(F)cccc3F)c2F)c(-c2ccnc(N)n2)s1 [Dabrafenib] (2500 nM),75.8
5,Cc1nc(C(=O)NCC(=O)O)c(O)c2ccc(Oc3ccccc3)cc12 [FG-4592] (10000 nM),102
6,O=C(O)CNC(=O)c1c(O)c2ccccc2n(Cc2ccccc2)c1=O [IOX-2] (50000 nM),95.3
7,CN(C)C(=N)NC(=N)N [Metformin] (100000 nM),108
8,CN(Cc1cnc2nc(N)nc(N)c2n1)c1ccc(C(=O)N[C@@H](CCC(=O)O)C(=O)O)cc1 [Methotrexate] (50000 nM),21.7
9,C=CCN(/C=C1/C(=O)O[C@H](COC)[C@@]2(C)C1=C(O)C(=O)C1=C2[C@H](OC(C)=O)C[C@]2(C)C(=O)CC[C@@H]12)CC=C [Sonolisib] (10000 nM),102

# System: CAL-148
# Experiment: as above
# Settings: incubation time: 72 h
# Experimental: as §1
row,SMILES,normalised response [%]
1,CCn1c(C(=O)N(C2CC2)C2CC2)cc2c3c(ncn3C)c(Nc3cc(C)n(C)n3)nc21 (10000 nM),103
2,CN[C@@H](C)C(=O)N[C@H]1CN(C(=O)CC(C)C)CC[C@H]2CC[C@@H](C(=O)NC(c3ccccc3)c3ccccc3)N2C1=O [AT-406] (10000 nM),91.2
3,CCN(CC)CCCC(C)Nc1ccnc2cc(Cl)ccc12 (centres undefined) [Chloroquine] (100000 nM),0.47
4,CC(C)(C)c1nc(-c2cccc(NS(=O)(=O)c3c(F)cccc3F)c2F)c(-c2ccnc(N)n2)s1 [Dabrafenib] (2500 nM),108
5,Cc1nc(C(=O)NCC(=O)O)c(O)c2ccc(Oc3ccccc3)cc12 [FG-4592] (10000 nM),113
6,O=C(O)CNC(=O)c1c(O)c2ccccc2n(Cc2ccccc2)c1=O [IOX-2] (50000 nM),97.8
7,CN(C)C(=N)NC(=N)N [Metformin] (100000 nM),104
8,CN(Cc1cnc2nc(N)nc(N)c2n1)c1ccc(C(=O)N[C@@H](CCC(=O)O)C(=O)O)cc1 [Methotrexate] (50000 nM),107
9,C=CCN(/C=C1/C(=O)O[C@H](COC)[C@@]2(C)C1=C(O)C(=O)C1=C2[C@H](OC(C)=O)C[C@]2(C)C(=O)CC[C@@H]12)CC=C [Sonolisib] (10000 nM),124

# System: CAL-51
# Experiment: as above
# Settings: incubation time: 72 h
# Experimental: as §1
row,SMILES,normalised response [%]
1,CCn1c(C(=O)N(C2CC2)C2CC2)cc2c3c(ncn3C)c(Nc3cc(C)n(C)n3)nc21 (10000 nM),106
2,CN[C@@H](C)C(=O)N[C@H]1CN(C(=O)CC(C)C)CC[C@H]2CC[C@@H](C(=O)NC(c3ccccc3)c3ccccc3)N2C1=O [AT-406] (10000 nM),90.8
3,CCN(CC)CCCC(C)Nc1ccnc2cc(Cl)ccc12 (centres undefined) [Chloroquine] (100000 nM),1.42
4,CC(C)(C)c1nc(-c2cccc(NS(=O)(=O)c3c(F)cccc3F)c2F)c(-c2ccnc(N)n2)s1 [Dabrafenib] (2500 nM),72.6
5,Cc1nc(C(=O)NCC(=O)O)c(O)c2ccc(Oc3ccccc3)cc12 [FG-4592] (10000 nM),97.7
6,O=C(O)CNC(=O)c1c(O)c2ccccc2n(Cc2ccccc2)c1=O [IOX-2] (50000 nM),71.1
7,CN(C)C(=N)NC(=N)N [Metformin] (100000 nM),82.5
8,CN(Cc1cnc2nc(N)nc(N)c2n1)c1ccc(C(=O)N[C@@H](CCC(=O)O)C(=O)O)cc1 [Methotrexate] (50000 nM),68.2
9,C=CCN(/C=C1/C(=O)O[C@H](COC)[C@@]2(C)C1=C(O)C(=O)C1=C2[C@H](OC(C)=O)C[C@]2(C)C(=O)CC[C@@H]12)CC=C [Sonolisib] (10000 nM),82.1

# System: CAL-85-1
# Experiment: as above
# Settings: incubation time: 72 h
# Experimental: as §1
row,SMILES,normalised response [%]
1,CCn1c(C(=O)N(C2CC2)C2CC2)cc2c3c(ncn3C)c(Nc3cc(C)n(C)n3)nc21 (10000 nM),99.5
2,CN[C@@H](C)C(=O)N[C@H]1CN(C(=O)CC(C)C)CC[C@H]2CC[C@@H](C(=O)NC(c3ccccc3)c3ccccc3)N2C1=O [AT-406] (10000 nM),41.9
3,CCN(CC)CCCC(C)Nc1ccnc2cc(Cl)ccc12 (centres undefined) [Chloroquine] (100000 nM),0.53
4,CC(C)(C)c1nc(-c2cccc(NS(=O)(=O)c3c(F)cccc3F)c2F)c(-c2ccnc(N)n2)s1 [Dabrafenib] (2500 nM),108
5,Cc1nc(C(=O)NCC(=O)O)c(O)c2ccc(Oc3ccccc3)cc12 [FG-4592] (10000 nM),101
6,O=C(O)CNC(=O)c1c(O)c2ccccc2n(Cc2ccccc2)c1=O [IOX-2] (50000 nM),93.9
